From publication PMC12040169 (PLOS Biology, 2025) come the findings set out here.

A word on the viability: it is a read-out of living cells in per cent, often relative to untreated cells.

The series can be described thus: in vitro. The following applies: human, hela cells, % viability.
As for `Cc1cc(NS(=O)(=O)c2cc(C(F)(F)F)cc(C(F)(F)F)c2)n(C)n1` [CBK067261], the viability at 28.5 h, 10 µM stood at 105%.

Turning to `Cc1noc(C)c1S(=O)(=O)Nc1nc(-c2cccnc2)cs1` [CBK067266], the viability at 28.5 h, 10 µM came out at 91.5%. `Cn1nc(-c2ccc(S(=O)(=O)Nc3nc(-c4cccnc4)cs3)s2)cc1C(F)(F)F` [CBK067270]: the viability at 28.5 h, 10 µM amounted to 88.4%.

Consider `O=S(=O)(Nc1cc(-c2ccco2)n[nH]1)c1ccc(Br)cc1C(F)(F)F` [CBK067286], for which the viability at 28.5 h, 10 µM came out at 96.2%.

Consider `O=C(O)c1cc(S(=O)(=O)Nc2cc(-c3ccco3)n[nH]2)c(F)cc1Cl` [CBK067292], for which the viability at 28.5 h, 10 µM turned out to be 92.6%. Consider `CCN(C(=O)CC1SC(NCC2CCCCC2)=NC1=O)c1ccccc1` (stereo not shown) [CBK067373], for which the viability at 28.5 h, 10 µM came to 89.3%.

As to `CC(C)(C)OC(=O)N1CCC(Oc2nccnc2Cl)CC1` [CBK067386], the viability at 28.5 h, 10 µM stood at 89.8%. Turning to `O=C1C2N=NN(Cc3ccccc3)C2C(=O)N1C1CCCCC1` (stereo not shown) [CBK067389], the viability at 28.5 h, 10 µM worked out at 115%. In the case of `CC(C)CC(CC(C)C)OCC(=O)NCC1(c2ccc3ccccc3c2)CCC1` [CBK067404] it was 109%.

As for `CN1CC[C@]2(c3ccc4c(c3)nnn4C)CC[C@@H](NC(=O)Nc3cccc(C(F)(F)F)c3F)C[C@H]12` [CBK067410], the viability at 28.5 h, 10 µM stood at 99.9%.

Regarding `COc1ccc([C@@]23CCC(N)C[C@@H]2N(C)CC3)c(F)c1OC` (stereo partly shown) [CBK067416], the viability at 28.5 h, 10 µM was 78.3%.

For the compound `Cc1cccc(S(=O)(=O)Nc2cc(OCCN3CCOCC3)c3occc3c2)c1` [CBK067420C], the viability at 28.5 h, 10 µM came out at 90.4%. In the case of `Cc1ccc(S(=O)(=O)NCC(=O)Nc2ccc3cc(Br)cnc3n2)cc1` [CBK067429] it was 95.6%; in that of `COc1ccccc1NC(=O)NCCC1SC(NC2CCCCCC2)=NC1=O` (stereo not shown) [CBK067473], 91.8%; in that of `O=[N+]([O-])c1cnc(NS(=O)(=O)c2cccc(C(F)(F)F)c2)s1` [CBK067533], 104%. For `O=[N+]([O-])c1cnc(NS(=O)(=O)c2ccccc2Br)s1` [CBK067539], the viability at 28.5 h, 10 µM was 96.2%. In the case of `O=[N+]([O-])c1cnc(NS(=O)(=O)c2ccc(Br)cc2C(F)(F)F)s1` [CBK067541] it was 99.6%; in that of `Cn1nc(-c2ccc(S(=O)(=O)Nc3ncc([N+](=O)[O-])s3)s2)cc1C(F)(F)F` [CBK067542], 109%. In the case of `O=[N+]([O-])c1cnc(NS(=O)(=O)c2ccc(-c3ccon3)s2)s1` [CBK067543], the viability at 28.5 h, 10 µM is 95.2%. Consider `Cn1nc(-c2ccc(S(=O)(=O)Nc3cccc(Cl)c3Cl)s2)cc1C(F)(F)F` [CBK067548], for which the viability at 28.5 h, 10 µM came to 92.2%. For the compound `CCCCc1ccc(-c2cnc(N)c3ncccc23)cc1` [CBK067588], the viability at 28.5 h, 10 µM was found to be 75.7%. In the case of `CS(=O)(=O)c1ccc(-c2cnc(N)c3ncccc23)cc1` [CBK067593] it was 90.5%. In the case of `Nc1ncc(-c2ccc(OC(F)(F)F)cc2)c2cccnc12` [CBK067594] it was 98.7%; in that of `Nc1cc2cccnc2nc1-c1cccnc1` [CBK067602], 84.8%. In the case of `Nc1cc2cccnc2nc1-c1cc(F)cc(F)c1` [CBK067604] it was 88.3%. As for `Nc1cc2cccnc2nc1-c1cccc2cccnc12` [CBK067609], the viability at 28.5 h, 10 µM came to 99.9%. For `COc1ccc(C(C)C)cc1-c1nc2ncccc2cc1N` [CBK067614], the viability at 28.5 h, 10 µM turned out to be 95.8%. In the case of `Nc1ccc2ccc(-c3ccsc3)nc2n1` [CBK067624] it was 89.4%; in that of `Nc1ccc2ccc(-c3ccc4c(c3)CCO4)nc2n1` [CBK067625], 90%; in that of `CN(C)c1ccc(-c2ccnc3nc(N)ccc23)cc1` [CBK067640], 85.8%. With `CS(=O)(=O)c1ccc(-c2ccnc3nc(N)ccc23)cc1` [CBK067648] the figure was 117%; with `Nc1ccc2c(-c3ccc(OC(F)(F)F)cc3)ccnc2n1` [CBK067649], 89.1%; with `Cc1ccc(S(=O)(=O)Nc2ccnc(Cl)n2)cc1` [CBK067661], 90.7%.

On to `COc1ccc([C@@]23CC[C@@H](N)C[C@@H]2N(C(C)(C)C)CC3)cc1OC` [CBK067673], for which the viability at 28.5 h, 10 µM worked out at 114%. With `O=C(NCCC1SC(NC2CCCCCC2)=NC1=O)Nc1ccc(C(F)(F)F)cc1Cl` (stereo not shown) [CBK067682] the figure was 89.9%; with `O=C1N=C(NC2CCCCCC2)SC1CCNC(=O)N1CCOCC1` (stereo not shown) [CBK067687], 110%. With `CSc1nnc(-c2sccc2OCc2ccc(Cl)cc2Cl)n1C` [CBK067693] the figure was 111%. With `O=C(NCc1n[nH]c(=S)n1-c1cccc(C(F)(F)F)c1)c1cccs1` [CBK067697] the figure was 91.2%. For `Cn1c(SCC(=O)c2ccc(Cl)cc2)nnc1-c1cnccc1C(F)(F)F` [CBK067698], the viability at 28.5 h, 10 µM was 110%. With `CSc1nnc(-c2cccs2)n1C` [CBK067702] the figure was 87.9%; with `O=c1c(-c2nnc(SCc3cccc(C(F)(F)F)c3)o2)cccn1Cc1ccccc1` [CBK067712], 108%. `Cc1nc(-c2nnc(SCc3ccc(C(F)(F)F)cc3)o2)cs1` [CBK067715]: the viability at 28.5 h, 10 µM is 95.1%.

As for `Cc1cc(-c2nnc(SCc3ccc(Cl)cc3)n2C)no1` [CBK067720], the viability at 28.5 h, 10 µM came out at 112%. As for `Cc1sc(-c2c(F)cccc2F)nc1O` [CBK067729], the viability at 28.5 h, 10 µM came out at 102%. Regarding `Cc1sc(-c2ccc(Cl)nc2)nc1OC(=O)c1cccs1` [CBK067733], the viability at 28.5 h, 10 µM is 94.5%.

Turning to `CC(C)(C)c1ccc(-c2nc(O)c(CC(=O)O)s2)cc1` [CBK067734], the viability at 28.5 h, 10 µM is 99.6%. In the case of `CC(=O)Nc1onc(C)c1-c1nc(-c2ccc(Cl)cc2Cl)cs1` [CBK067735] it was 101%; in that of `Cc1sc(-c2cnccn2)nc1O` [CBK067738], 97.3%; in that of `COc1ccc(/C=C2\SC(Nc3ccc(Cl)c(C(=O)O)c3)=NC2=O)cc1C` [CBK067743], 99.1%.

On to `Cc1sc(-c2cccs2)nc1OC(=O)c1cccc(C(F)(F)F)c1` [CBK067748], for which the viability at 28.5 h, 10 µM is 96.1%.

Regarding `O=C1N/C(=N/c2ccccc2Cl)S/C1=C/c1ccc(-c2ccccc2Cl)o1` [CBK067752], the viability at 28.5 h, 10 µM stood at 89.3%.

Take `Cc1nn(-c2ccccc2)c(O)c1Cc1c(Cl)cccc1Cl` [CBK067760]: the viability at 28.5 h, 10 µM turned out to be 98.1%. In the case of `CC1=NN(c2ccc(Cl)c(Cl)c2)C(=O)C1` [CBK067761] it was 100%; in that of `O=C1CC(c2cccnc2)=NN1c1ccc(Cl)cc1Cl` [CBK067764], 97.7%. As for `COc1cccc(CCN2N=C(C)CC2=O)c1OC` [CBK067766], the viability at 28.5 h, 10 µM turned out to be 100%. With `Cc1cc(SCC2=NNC(=O)C2)c(Cl)cc1Cl` [CBK067769] the figure was 92.8%; with `CC1=NN(c2ccccc2)C(=O)C1C(=O)c1ccc(Br)cc1` (stereo not shown) [CBK067771], 98.1%.

Take `CN1N=C(c2ccccc2)CC1=O` [CBK067774]: the viability at 28.5 h, 10 µM amounted to 96.4%. As to `Cc1nn(C)c(Cl)c1S(=O)(=O)Nc1cc(NC2CCNC2)c2occc2c1` (stereo not shown) [CBK067807C], the viability at 28.5 h, 10 µM was found to be 99.3%. With `CCN(CC)C(=O)c1sc2ccccc2c1Cl` [CBK067853] the figure was 103%. Consider `O=C1N=C(NC2CCCCCC2)SC1Cc1ccc(O)cc1` (stereo not shown) [CBK067868], for which the viability at 28.5 h, 10 µM was 109%. With `CCN1CCC[C@@H]1CNc1cc(NS(=O)(=O)c2cccs2)cc2ccoc12` [CBK067904C] the figure was 83.3%; with `O=C1N=C(NCC2CCCCC2)SC1CC(=O)N1CCCC(O)C1` (stereo not shown) [CBK067919], 109%.

In the case of `CCN(CC)C(=O)CC1SC(NCC2CCCCC2)=NC1=O` (stereo not shown) [CBK067923], the viability at 28.5 h, 10 µM is 92.9%. In the case of `CC1CCCCN1CCCNc1cc(NS(=O)(=O)c2cn(C)cn2)cc2ccoc12` (stereo not shown) [CBK067940C] it was 94.5%. Regarding `O=C1N=C(NC2CCCCC2)SC1Cc1nc2ccccc2o1` (stereo not shown) [CBK067970], the viability at 28.5 h, 10 µM worked out at 96.4%. With `O=S(=O)(c1ccc(Cl)cc1)N1CCN(c2ccccc2)CC1` [CBK067987] the figure was 100%; with `O=C(CSc1nnc(-c2ccccc2O)o1)c1ccc(Cl)cc1` [CBK068032], 98.4%; with `Cc1ccc(C)c2[nH]c(=O)c(CN(Cc3cccnc3)C(=O)NC3CCCCC3)cc12` [CBK068091], 98.2%. With `Cc1cccc(-c2nnn(CC(=O)O)n2)c1` [CBK068105] the figure was 102%; with `Cc1ccc(S(=O)(=O)N2CCN(C(=O)c3ccco3)CC2)cc1` [CBK068166], 92.8%. In the case of `Cc1ccc2nc(SCC(=O)Nc3ccccc3Br)c(C#N)cc2c1` [CBK068169] it was 94.4%; in that of `COc1cccc(-c2nnn(CC(=O)O)n2)c1` [CBK068202], 94.9%. With `O=C(c1ccco1)N1CCN(C(=O)c2ccco2)CC1` [CBK068272], the viability at 28.5 h, 10 µM was 86.4%.

In the case of `CCCCOc1ccc(-c2nnn(CC(=O)NCc3ccccc3)n2)cc1` [CBK068557], the viability at 28.5 h, 10 µM stood at 96.8%.

`CCCCOc1ccc(-c2nnn(C(C)C(=O)OCC)n2)cc1` (stereo not shown) [CBK068558]: the viability at 28.5 h, 10 µM is 88.6%.

For `CCn1c(SCC(=O)O)nnc1-c1ccco1` [CBK068633], the viability at 28.5 h, 10 µM worked out at 86.8%. In the case of `CCN(CC)CCN(Cc1cc2ccc(C)cc2[nH]c1=O)C(=O)Nc1ccc(Cl)cc1` [CBK068680] it was 84.9%; in that of `COc1ccc2cc(C#N)c(SCC(=O)Nc3ccc(F)cc3)nc2c1` [CBK068765], 85.7%; in that of `CC(=O)c1ccc(S(=O)(=O)N2CCCCC2C)cc1` (stereo not shown) [CBK069211], 90%. With `c1ccc(CCn2nnnc2CN2CCN(c3ccccc3)CC2)cc1` [CBK069271] the figure was 95.2%; with `COc1ccc(-c2nnc(SCC(=O)c3ccccc3)o2)cc1` [CBK069390], 100%.
